Test results taken from PMC7747594, “Protease-activated receptor-2 ligands reveal orthosteric and allosteric mechanisms of receptor inhibition” (Communications Biology, 2020).

Assays:
[1] = target: T1, hPAR2 (Homo sapiens, UniProt P55085); test: IP1 assay, agonist mode, 1321N1-hPAR2 cells; assay type: cell-based
T1 sequence (P55085 26-397): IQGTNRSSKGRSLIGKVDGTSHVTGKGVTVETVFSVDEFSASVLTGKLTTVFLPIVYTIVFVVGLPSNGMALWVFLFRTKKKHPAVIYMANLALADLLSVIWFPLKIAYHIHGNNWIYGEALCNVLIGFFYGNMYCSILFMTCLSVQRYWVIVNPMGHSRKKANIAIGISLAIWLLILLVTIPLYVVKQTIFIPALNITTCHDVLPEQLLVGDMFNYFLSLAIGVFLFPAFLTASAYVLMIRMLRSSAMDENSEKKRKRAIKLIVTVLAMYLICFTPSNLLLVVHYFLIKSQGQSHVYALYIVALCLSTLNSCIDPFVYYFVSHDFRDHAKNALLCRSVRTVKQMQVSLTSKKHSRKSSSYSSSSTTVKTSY

[2] = target: T2, PAR4 (F2RL3) (Homo sapiens, UniProt Q96RI0); test: β-arrestin recruitment, DiscoverX profiling service, PAR4; assay type: cell-based
T2 sequence (Q96RI0 18-385): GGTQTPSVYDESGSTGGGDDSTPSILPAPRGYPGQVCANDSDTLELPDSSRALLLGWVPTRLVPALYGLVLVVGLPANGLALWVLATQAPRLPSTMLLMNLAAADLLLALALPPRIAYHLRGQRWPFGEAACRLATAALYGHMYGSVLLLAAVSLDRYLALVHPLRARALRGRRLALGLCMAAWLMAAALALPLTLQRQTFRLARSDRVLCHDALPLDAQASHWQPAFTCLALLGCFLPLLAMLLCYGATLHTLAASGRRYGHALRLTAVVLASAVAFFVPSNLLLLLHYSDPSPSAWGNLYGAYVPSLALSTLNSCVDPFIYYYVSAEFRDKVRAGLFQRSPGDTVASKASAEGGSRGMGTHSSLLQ

[3] = target: T1, hPAR2; test: Schild and allosteric model analysis of Ca^2+ mobilisation in CHO-hPAR2 cells (2f-LIGRL-NH2 or trypsin); assay type: cell-based; conditions: for linear Schild regression slope: Figure R1; for logα / logβ: operational model of allosterism
Method: Cells were loaded with Fluo-8 NW calcium dye (AAT Bioquest) for 30 min at 37 °C before compounds in Hank’s balanced salt solution (HBSS, ThermoFisher Scientific) with 20 mM HEPES (ThermoFisher Scientific), 0.1% bovine serum albumin (BSA, Sigma) and 0.5% DMSO were added and simultaneously evaluated for changes in intracellular [Ca^2+] using FLIPR TETRA (Molecular Devices) to detect agonism. For each concentration, the difference between the maximum peak Ca^2+ response and baseline response is reported. […] Antagonism experiments were also carried out on 1321N1-PAR2[WT], 1321N1-PAR2[F154A], and 1321N1-PAR2[G157C] as described. Experiments with trypsin in 1321N1-hPAR2 cells were performed in the presence of 1 µM Vorapaxar (Chemtronica) to remove any interference of PAR1 activity. […] Antagonism experiments for CHO-hPAR2 and HT-29 cells were performed in 96-well plates at 30,000 cells/well. Cells were loaded with Fluo-3 AM calcium dye (Sigma-Aldrich) for 60 min at 37 °C in HBSS with 1% FBS, 0.2% pluronic acid, 20 mM HEPES and 2.5 mM probenecid prior to the addition of antagonist. The antagonist was pre-incubated for 60 min at 37 °C followed by the addition of bovine trypsin (30 nM) at EC80. Intracellular [Ca^2+] flux was measured using FLIPR TETRA (Molecular Devices) and the difference between the maximum peak Ca^2+ response and baseline response is reported.
Binding data were analysed using the One site – Fit Ki model in GraphPad Prism 8 (GraphPad Software) to determine binding affinity. Pharmacology in vitro potency data was analysed with a 4-parameter logistic fit using the equation y = Bottom + (Top − Bottom)/[…] where y is the response, x is the 10-logarithm of the drug concentration, Bottom is no response and Top is full response in GraphPad Prism 8 or Genedata Screener (Genedata). pEC50 and pIC50 data are presented as mean ± standard error of the mean (s.e.m.) derived from the number of independent experiments stated. Schild slope analysis was calculated using Graphpad Prism 8 Gaddum/Schild EC50 global fitting (shared model parameters between all data sets) competitive model. […] Schild slope quantifies the shifts in agonist response in the presence of antagonist, a Schild slope of 1 indicates the antagonist is competitive and extra-sum-of-squares F-test (p < 0.05) was used to compare the calculated Schild slope against a hypothetical Schild slope of 1. […] The relative activity was calculated using (EmaxEC50’)/(Emax’EC50) with the Hill slope help constant at 1. EC50’ and Emax’ denote the EC50 and Emax in the absence of allosteric modulator, while EC50 and Emax denote those measured in the presence of allosteric modulator. When the Hill slope = 1, the relative activity plot approaches an asymptote corresponding to the estimate of the γ value.

[4] = target: T3, PAR2 stabilised receptor (StaR) (Homo sapiens, UniProt P55085); test: Surface plasmon resonance (SPR) binding, single-cycle kinetics; conditions: n of 2, earlier manuscript version quoted by reviewer
T3 sequence (P55085 55-377): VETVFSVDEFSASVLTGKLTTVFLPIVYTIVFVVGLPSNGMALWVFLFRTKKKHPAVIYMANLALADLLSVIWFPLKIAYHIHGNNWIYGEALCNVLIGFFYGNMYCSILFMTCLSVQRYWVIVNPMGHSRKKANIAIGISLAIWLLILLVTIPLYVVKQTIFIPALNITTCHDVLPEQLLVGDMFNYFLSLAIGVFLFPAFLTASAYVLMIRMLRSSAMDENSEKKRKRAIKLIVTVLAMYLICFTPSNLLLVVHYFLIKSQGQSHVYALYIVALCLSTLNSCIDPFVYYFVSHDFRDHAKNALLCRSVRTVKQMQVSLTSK

[5] = against 2f-LIGRL-NH2, Gaddum/Schild EC50 global fitting, CHO-hPAR2 cells
[6] = against trypsin, Gaddum/Schild EC50 global fitting, CHO-hPAR2 cells
[7] = 2f-LIGRL-NH2, Ca^2+ mobilisation

more potent than SLIGKV-NH2, IP1 accumulation ([1]; 1321N1-hPAR2) [fold]	EC50 ([1]; 1321N1-hPAR2 cells, mean ± s.e.m., read-out: IP1 pEC50 (converted)) [nM]	Max Response ([2]; Arrestin, Agonist format, F2RL3) [%]	EC50 ([2]; Arrestin, Agonist format, F2RL3, read-out: RC50 (EC50)) [nM]	Max Response ([2]; Arrestin, Antagonist format, F2RL3) [%]	IC50 ([2]; Arrestin, Antagonist format, F2RL3, read-out: RC50 (IC50)) [nM]	activity against PAR4 in β-arrestin-2 recruitment assay ([2]; DiscoverX profiling service)	γ value estimated from relative activity ([3]; 2f-LIGRL-NH2)	logα [3, 7]	logβ [3, 7]	logα ([3]; trypsin, Ca^2+ mobilisation)	logβ ([3]; trypsin, Ca^2+ mobilisation)	γ value estimated from relative activity ([3]; trypsin)	Kd [4] [nM]	Structure (SMILES)	linear Schild regression slope ([3]; 2f-LIGRL-NH2, CHO-hPAR2 cells)	Schild slope [3, 5]	Schild slope [3, 6]	linear Schild regression slope ([3]; trypsin, CHO-hPAR2 cells)
120	200	3.8	> 50000	2.3	> 50000	No AZ2429 activity was detected	–	–	–	–	–	–	–	CNC(=O)[C@H]1CC[C@@H](NC(=O)[C@H](CC2CCCCC2)NC(=O)c2cn(Cc3ccccc3)nn2)c2ccccc21 [AZ2429]	–	–	–	–
–	–	–	–	–	–	–	0.002	−1.98 ± 0.11	−0.28 ± 0.07	−1.19 ± 0.07	−0.66 ± 0.08	0.09	14	C[C@@H](C1CCCCC1)n1c(-c2cc3c(cc2Br)OCO3)nc2cc(C(=O)Nc3ccc(C#N)cc3)ccc21 [AZ3451]	0.4	0.4	0.3	0.2
–	–	–	–	–	–	–	–	–	–	–	–	–	–	CCCc1cc(F)ccc1C(O)c1ncc[nH]1 (stereo not shown) [AZ8838]	1.0	1.1	0.9	0.8
